Experimental data taken from ChEMBL document CHEMBL4699610, “Synthesis and biological evaluation of anti-tubercular activity of Schiff bases of 2-Amino thiazoles” (2020).
In brackets after ≈: the same amount, converted by molar mass.

Tested on: Mycobacterium tuberculosis
Assay: Antitubercular activity against Mycobacterium tuberculosis H37Rv assessed as bacterial growth inhibition by MABA relative to control
Type: functional

`COc1cc(/C=C\Nc2nc(-c3ccc(N4C(=O)CCC4=O)cc3)cs2)cc(OC)c1OC` was tested, and the MIC was 25 mg/L (≈ 53.7 µM).
With `O=C1CCC(=O)N1c1ccc(-c2csc(N/C=C\c3ccc(F)cc3)n2)cc1` the MIC was 12.5 mg/L (≈ 31.8 µM).
`CN[C@@H]1[C@H](O[C@H]2[C@H](O[C@H]3[C@H](O)[C@@H](O)[C@H](N=C(N)N)[C@@H](O)[C@@H]3N=C(N)N)O[C@@H](C)[C@]2(O)C=O)O[C@@H](CO)[C@H](O)[C@H]1O` [STREPTOMYCIN] was tested, and the MIC was 0.8 mg/L (≈ 1.38 µM).
`Nc1nc(-c2ccc(N3C(=O)CCC3=O)cc2)cs1` gave an MIC of 6.25 mg/L (≈ 22.9 µM).
For `O=C1CCC(=O)N1c1ccc(-c2csc(N/C=C\c3cccc(Cl)c3)n2)cc1`, the MIC was 25 mg/L (≈ 61 µM).
With `COc1cc(/C=C\Nc2nc(-c3ccc(NC(=O)c4ccccc4)cc3)cs2)cc(OC)c1OC` the MIC was 25 mg/L (≈ 51.3 µM).
For `O=C1CCC(=O)N1c1ccc(-c2csc(N/C=C\c3ccccc3[N+](=O)[O-])n2)cc1`, the MIC was 100 mg/L (≈ 238 µM).
`O=C(Nc1ccc(-c2csc(N/C=C\c3ccc(F)cc3)n2)cc1)c1ccccc1` showed an MIC of 12.5 mg/L (≈ 30.1 µM).
Compound `O=C(Nc1ccc(-c2csc(N/C=C\c3cccc(Cl)c3)n2)cc1)c1ccccc1` has an MIC of 25 mg/L (≈ 57.9 µM).
`CO[C@H]1/C=C/O[C@@]2(C)Oc3c(C)c(O)c4c(O)c(c(/C=N/N5CCN(C)CC5)c(O)c4c3C2=O)NC(=O)/C(C)=C\C=C\[C@H](C)[C@H](O)[C@@H](C)[C@@H](O)[C@@H](C)[C@H](OC(C)=O)[C@@H]1C` [RIFAMPIN] was tested, and the MIC was 0.8 mg/L (≈ 0.972 µM).
Work on `NC(=O)c1cnccn1` [PYRAZINAMIDE] yielded an MIC of 3.12 mg/L (≈ 25.4 µM).
Compound `O=C(Nc1ccc(-c2csc(N/C=C\c3ccc(O)cc3)n2)cc1)c1ccccc1` has an MIC of 6.25 mg/L (≈ 15.1 µM).
`CC[C@@H](CO)NCCN[C@@H](CC)CO` [ETHAMBUTOL] gave an MIC of 3.2 mg/L (≈ 15.7 µM).
For `O=C1CCC(=O)N1c1ccc(-c2csc(N/C=C\c3ccc(O)cc3)n2)cc1`, the MIC was 100 mg/L (≈ 255 µM).
Work on `O=C(O)c1cn(C2CC2)c2cc(N3CCNCC3)c(F)cc2c1=O` [CIPROFLOXACIN] yielded an MIC of 3.12 mg/L (≈ 9.43 µM).
Compound `Nc1nc(-c2ccc(N3C(=O)c4ccccc4C3=O)cc2)cs1` has an MIC of 12.5 mg/L (≈ 38.9 µM).
`Nc1nc(-c2ccc(NC(=O)c3ccccc3)cc2)cs1` was tested, and the MIC was 50 mg/L (≈ 169 µM).
Work on `COc1cc(/C=C\Nc2nc(-c3ccc(N4C(=O)c5ccccc5C4=O)cc3)cs2)cc(OC)c1OC` yielded an MIC of 6.25 mg/L (≈ 12.2 µM).
With `NNC(=O)c1ccncc1` [ISONIAZID] the MIC was 1.6 mg/L (≈ 11.7 µM).
In the case of `O=C(Nc1ccc(-c2csc(N/C=C\c3ccccc3[N+](=O)[O-])n2)cc1)c1ccccc1`, the MIC is reported as 6.25 mg/L (≈ 14.1 µM).
In the case of `O=C1c2ccccc2C(=O)N1c1ccc(-c2csc(N/C=C\c3ccccc3[N+](=O)[O-])n2)cc1`, the MIC is reported as 25 mg/L (≈ 53.4 µM).
